Results published in PMC5562778 (Archives of Toxicology, 2017).
Where two headings read alike, the source gives them in different places.

Experiments:
[1] = PBK prediction, ref Barter et al. [2013], cited from earlier work
[2] = ref Barter et al. [2013], cited from earlier work
[3] = tested on: Chinese liver microsomes; experiment: Microsomal conversion of estragole by Chinese liver microsomes (NADPH); conditions: for Catalytic efficiency (scaled V max / K m) / Scaled V max: formation from estragole, Chinese; for Scaled V max: scaled with microsomal protein yield 35 mg/(g tissue); for Catalytic efficiency (V max/K m × 1000) / K m / V max: formation of the metabolite from estragole, Chinese liver microsomes; for K m / V max: average ± SEM; for Catalytic efficiency for formation of the metabolite, lower in Chinese than in Caucasian samples / V max for formation of the metabolite, lower in Chinese than in Caucasian samples: in vitro, liver microsomes
Description: (§1) The incubation mixtures contained (final concentrations) 3 mM NADPH and 1 mg/mL microsomal protein in 0.2 M Tris–HCl (pH 7.4). Incubations were performed for 10 min at substrate concentrations ranging from 25 to 1000 μM, after which the reaction was terminated by adding 25 μL ice-cold acetonitrile. Blank incubations were performed in the absence of the cofactor NADPH. All incubations were performed in triplicate. In the supporting materials 2, detailed information can be found (Table S1 can be used to keep track of detailed information).
(§2) Before UPLC analysis, all samples were centrifuged for 5 min at 16,000 g to precipitate microsomal proteins. Supernatant of each sample was analyzed on UPLC using a BEH C18 (1.7 μm, 2.1 × 50 mm) column with a guard column and a diode array detector (Acquity, Waters). […] Table S1 can be used to keep track of detailed information.
(§3) The apparent maximum velocity (V max) and the apparent Michaelis–Menten constant (K m) were determined by fitting the data to this equation using GraphPad Prism version 5.0 (GraphPad software, San Diego California USA).
(§4) The incubation mixtures contained (final concentrations) 3 mM NADPH and 1 mg/ml microsomal protein in 0.2 M Tris-HCl (pH 7.4). […] Incubations were performed for 10 min at substrate concentrations ranging from 25 to 1000 μM, after which the reaction was terminated by adding 25 μl ice-cold acetonitrile. […] Blank incubations were performed in the absence of the cofactor NADPH. All incubations were performed in triplicate.
The flow rate was 0.6 ml/min and the gradient started with 100 % ultrapure water.

[4] = tested on: Caucasian liver microsomes; experiment: Microsomal conversion of estragole by Caucasian liver microsomes (NADPH); assay type: in vitro ADME, human; conditions: for Catalytic efficiency (scaled V max / K m) / Scaled V max: formation from estragole, Caucasian; for Catalytic efficiency (scaled V max / K m): scaled to liver; for Scaled V max: scaled with microsomal protein yield 35 mg/(g tissue); for Catalytic efficiency (V max/K m × 1000) / K m / V max: formation of the metabolite from estragole, Caucasian liver microsomes; for K m / V max: average ± SEM
Description: as §1
as §2, with “information. […] 3′-Hydroxyanethole was quantified by comparison of the peak areas of the metabolite in the chromatograms obtained at a wavelength of 206 nm to the calibration curve of the synthesized reference compound (Agharahimi and LeBel [1995]; Drinkwater et al. [1976]; Iyer et al. [2003]; Luo et al. [1992]).” for “information.”
as §3, §4
The flow rate was 0.6 ml/min and the gradient started with 100 % ultrapure water. After 1 min, the amount of acetonitrile was increased to 10 % and kept at that level for 1 min, after which the percentage of acetonitrile was increased to 35 % in 2.5 min and then increased to 100 % over 0.5 minute and kept at 100 % acetonitrile for another 1 min, and finally back to the starting conditions.

[5] = tested on: Chinese liver S9; experiment: Oxidation of 1′-hydroxyestragole by Chinese liver S9 (NAD+, GSH trapping); assay type: in vitro ADME, human
Description: (§5) Mixed gender Chinese or Caucasian liver S9 was incubated with 1′-hydroxyestragole in the presence of NAD^+ and GSH, the latter added to trap the transient 1′-oxoestragole. Formation of the 1′-oxoestragole adducts with GSH forming GS-1′-oxoestragole reflects the formation of 1′-oxoestragole (Punt et al. [2009]). […] The reactions were terminated after 10 min by the addition of 25 μL ice-cold acetonitrile. Blank incubations were performed without cofactor NAD^+. All incubations were performed in triplicate.
(§6) Secondary metabolism of 1′-hydroxyestragole includes glucuronidation, oxidation, and sulfation. The gradient of analysis of the metabolites of 1′-hydroxyestragole can be found in supporting materials 2. Table S1 can be used to track more detailed information.
(§7) Identification of the GS-1′-oxoestragole which reflects the formation of 1′-oxoestragole was done by comparing the UV spectra and retention time of the formed GSH adduct to those of GS-1′-oxoestragole identified as described previously (Punt et al. [2009]). Quantification of the GSH conjugate of 1′-oxoestragole was achieved by comparing the peak area to the calibration curve of GS-1′-oxoestragole at a wavelength of 280 nm prepared as described previously by Punt et al. ([2009], [2016]). Briefly, the calibration curve of GS-1′-oxoestragole was prepared by incubating 40 μM 1′-oxoestragole with a range of GSH concentrations. The reactions were incubated for 4 h after which maximal formation of GS-1′-oxoestragole was previously shown to be reached (Punt et al. [2009]).
(§8) Mixed gender Chinese or Caucasian liver S9 was incubated with 1'-hydroxyestragole in the presence of NAD^+ and GSH, the latter added to trap the transient 1'-oxoestragole. Formation of the 1'-oxoestragole adducts with GSH forming GS-1'-oxoestragole reflects the formation of 1'-oxoestragole (Punt et al. 2009). […] The mixtures were pre-incubated for 1 min at 37 °C, after which the reactions were started by adding the substrate 1'-hydroxyestragole at concentrations ranging from 15 to 1000 μM added from 100 times concentrated stock solutions in DMSO. The reactions were terminated after 10 min by the addition of 25 μl ice-cold acetonitrile. Under these conditions, the formation of the GSH adduct of 1'-oxoestragole was linear with time and cytosolic protein concentration (Punt et al. 2009). Blank incubations were performed without cofactor NAD^+. All incubations were performed in triplicate.
(§9) The gradient for analysis of the metabolites contains a mixture of acetonitrile and 0.1 % TFA in ultrapure water with 0.6 ml/min flow rate.

[6] = tested on: Caucasian liver S9; experiment: Oxidation of 1′-hydroxyestragole by Caucasian liver S9 (NAD+, GSH trapping); assay type: in vitro ADME, human
Description: as §5, §6, §7, §8, §9

[7] = formation from 1′-hydroxyestragole (oxidation), Chinese liver S9
[8] = formation from 1′-hydroxyestragole (oxidation), Chinese liver S9, listed as 1′-oxoestragole
[9] = formation from 1′-hydroxyestragole (oxidation), Caucasian liver S9
[10] = formation from 1′-hydroxyestragole (oxidation), Caucasian liver S9, listed as 1′-oxoestragole

Row | Compound | Catalytic efficiency (scaled V max / K m) ([3]; scaled to liver) [µL/h/g liver] | Scaled V max [3] [µmol/h/g liver] | Catalytic efficiency (V max/K m × 1000) [3] | K m [3] [µM] | V max [3] | Catalytic efficiency for formation of the metabolite, lower in Chinese than in Caucasian samples ([3]; conversion of estragole) [fold] | V max for formation of the metabolite, lower in Chinese than in Caucasian samples ([3]; conversion of estragole) [fold] | Catalytic efficiency (scaled V max / K m) [4] [µL/h/g liver] | Scaled V max [4] [µmol/h/g liver] | Catalytic efficiency (V max/K m × 1000) [4] | K m [4] [µM] | V max [4] | other results
1 | CCCCNC(=O)NS(=O)(=O)c1ccc(C)cc1 [tolbutamide] |  |  |  |  |  |  |  |  |  |  |  |  | Predicted clearance, lower in Chinese than in Caucasian subjects ([1]; route not stated): 25%; Experimentally observed clearance, lower in Chinese individuals than in Caucasian volunteers ([2]; route not stated): 2%
2 | Cc1nnc2n1-c1ccc(Cl)cc1C(c1ccccc1)=NC2 [alprazolam] |  |  |  |  |  |  |  |  |  |  |  |  | Predicted clearance, lower in Chinese than in Caucasian subjects ([1]; intravenous): 21%; Predicted clearance, lower in Chinese than in Caucasian subjects ([1]; oral): 22%; Experimentally observed clearance, lower in Chinese individuals than in Caucasian volunteers ([2]; intravenous): 20%; Experimentally observed clearance, lower in Chinese individuals than in Caucasian volunteers ([2]; oral): 21%
3 | COc1ccc(/C=C/CO)cc1 [3′-Hydroxyanethole] | 1.5 | 0.7 | 0.71 µL/min/mg microsomal or S9 protein | 450 ± 219 | 0.32 ± 0.07 nmol /min/mg microsomal or S9 protein | 3.2 | 3.1 | 4.8 | 2.1 | 2.3 µL/min/mg microsomal or S9 protein | 429 ± 80 | 0.99 ± 0.08 nmol /min/mg microsomal or S9 protein | 
4 | COc1ccc2[nH]c([S+]([O-])Cc3ncc(C)c(OC)c3C)nc2c1 (stereo not drawn) [omeprazole] |  |  |  |  |  |  |  |  |  |  |  |  | Predicted clearance, lower in Chinese than in Caucasian subjects ([1]; route not stated): 51%; Experimentally observed clearance, lower in Chinese individuals than in Caucasian volunteers ([2]; route not stated): 75%
5 | C=CC(=O)c1ccc(OC)cc1 [1′-Oxoestragole] |  |  |  |  |  |  |  |  |  |  |  |  | Catalytic efficiency (V max/K m × 1000) [5, 7]: 4.5 µL/min/mg microsomal or S9 protein; K m [5, 7]: 403 ± 137 µM; V max [5, 7]: 1.82 ± 0.28 nmol /min/mg microsomal or S9 protein; K m [5, 8]: 403 µM; V max [5, 8]: 1.82 nmol /min/mg microsomal or S9; Catalytic efficiencies for formation of 1′-oxoestragole, Chinese versus Caucasian ([5]; in vitro, oxidation of 1′-hydroxyestragole, liver S9): similar; Scaled V max ([5]; oxidation of 1′-hydroxyestragole, Chinese, S9 protein yield 143 mg/(g tissue)): 15.6 µmol/h/g liver; Catalytic efficiency (scaled V max / K m) ([5]; oxidation of 1′-hydroxyestragole, Chinese, scaled to liver): 38.7 µL/h/g liver; Scaled catalytic efficiencies for formation of 1′-oxoestragole, Chinese versus Caucasian ([5]; scaled to liver, oxidation of 1′-hydroxyestragole): similar; Catalytic efficiency (V max/K m × 1000) [6, 9]: 5.4 µL/min/mg microsomal or S9 protein; K m [6, 9]: 521 ± 265 µM; V max [6, 9]: 2.8 ± 0.70 nmol /min/mg microsomal or S9 protein; K m [6, 10]: 521 µM; V max [6, 10]: 2.8 nmol /min/mg microsomal or S9; Scaled V max ([6]; oxidation of 1′-hydroxyestragole, Caucasian, S9 protein yield 143 mg/(g tissue)): 24.0 µmol/h/g liver; Catalytic efficiency (scaled V max / K m) ([6]; oxidation of 1′-hydroxyestragole, Caucasian, scaled to liver): 46.1 µL/h/g liver
6 | COc1ccc(CC2CO2)cc1 (stereo not drawn) [Estragole-2′,3′-oxide] | 5.5 | 0.9 | 2.6 µL/min/mg microsomal or S9 protein | 161 ± 17 | 0.42 ± 0.01 nmol /min/mg microsomal or S9 protein | 4.9 | 4.4 | 26.6 | 3.9 | 12.7 µL/min/mg microsomal or S9 protein | 146 ± 15 | 1.85 ± 0.06 nmol /min/mg microsomal or S9 protein | V max, lower in Chinese than in Caucasian liver incubations ([3]; scaled kinetic constants (Table 3), conversion of estragole): fourfold; Scaled catalytic efficiency, lower for Chinese than Caucasian liver microsomes ([3]; scaled to liver, conversion of estragole): fivefold
7 | C=CCc1ccc(O)cc1 [4-Allylphenol] | 2.7 | 0.3 | 1.3 µL/min/mg microsomal or S9 protein | 115 ± 24 | 0.15 ± 0.01 nmol /min/mg microsomal or S9 protein | 1.8 | 5.0 | 5.0 | 1.6 | 2.4 µL/min/mg microsomal or S9 protein | 308 ± 71 | 0.74 ± 0.07 nmol /min/mg microsomal or S9 protein | 
8 | Cc1ncc2n1-c1ccc(Cl)cc1C(c1ccccc1F)=NC2 [midazolam] |  |  |  |  |  |  |  |  |  |  |  |  | Predicted clearance, lower in Chinese than in Caucasian subjects ([1]; intravenous): 24%; Predicted clearance, lower in Chinese than in Caucasian subjects ([1]; oral): 17%; Experimentally observed clearance, lower in Chinese individuals than in Caucasian volunteers ([2]; intravenous): 19%; Experimentally observed clearance, lower in Chinese individuals than in Caucasian volunteers ([2]; oral): 62%
